Marks after values point to notes of the source that are not given here.
Tested on: IL-17F mRNA expression
Test: Ex-vivo human skin model, IL-17F mRNA expression
Type: cell-based
Conditions: for Percentage of inhibition of IL-17F mRNA expression: Th17 cytokine cocktail 24 h, RT-PCR

SMILES: CCc1ccc(N(CC(C)C)S(=O)(=O)c2ccc([C@@H](O)CN3CCOCC3)c(CO)c2)cc1 [Example E126, N-(4-ethylphenyl)-4-(1-hydroxy-2-morpholinoethyl)-3-(hydroxymethyl)-N-isobutylbenzenesulfonamide]
- Percentage of inhibition of IL-17F mRNA expression (Skin Donor 1, compound 10 μM): 67% *
- Percentage of inhibition of IL-17F mRNA expression (Skin Donor 2, compound 10 μM): 89% *
- Percentage of inhibition of IL-17F mRNA expression (Skin Donor 3, compound 10 μM): 67% *
- Percentage of inhibition of IL-17F mRNA expression (Skin Donor 4, compound 10 μM): 74% *
- gene transcription of il17f (result in words) (four different donors, compound 10 μM): inhibited
